According to US10584106B1, “Antifungal compounds derived from lavender oil” (King Abdulaziz University, priority 2018, dated 2020):
Read-outs that look alike come from different tables or passages of the source.

Key:
Assay in all cases: Antifungal activity by the well-cut diffusion method
Type in all cases: cell-based
Microsporum gallinna [1] = conditions: for zone of inhibition at 1000 µg/mL: Microsporum, read-out: Inhibition Zone Dimeter (mm) M. gallina
Method: (§1) Microsporum canis and Microsporum gallinna were obtained from King Fahad Hospital in Jeddah, Saudi Arabia
(§2) Antifungal Activity by the Well-Cut Diffusion Method:
Well-cut diffusion technique was used to evaluate the antifungal activities of the_tested compounds [El-Masry et al. “Synthesis and antimicrobial activity of some new benzimidazole derivatives” Molecules, 5 (2002), pp. 1429-1438]. The Sabaroud dexterous agar media was inoculated with 1 ml from tested spore suspension, then wells were cut from the plate using a sterile 10 mm cork-borer. About 0.5 and 1.0 ml of a chloroform solution containing 1.0 mg/ml of tested compounds were added into each well. All plates were incubated at 4° C. for 2 h to slow fungal growth. The plates were later incubated at 28° C. for a week [Mtolera and Semesi “Antimicrobial activity of extracts from six green algae from Tanzania.” Curr. Trends Mar. Bot. Res. East Afr. Reg. pp. 211-217 (1996)]. After incubation, the diameter of the growth inhibition zone was measured in mm [Attaie et al. Inhibition of growth of S. aureus during production of acidophilus yogurt J. Food Prot., 50 (1987), pp. 224-228], see Table 3.

Microsporum gallinna [2] = conditions: for zone of inhibition at 500 µg/mL: Microsporum, read-out: Inhibition Zone Dimeter (mm) M. gallina
Microsporum canis = conditions: for zone of inhibition at 500 µg/mL / zone of inhibition at 1000 µg/mL: Microsporum canis, read-out: Inhibition Zone Dimeter (mm) M. canis
Method: as §1, §2
Well-cut diffusion technique was used to evaluate the antifungal activities of the_tested compounds [El-Masry et al. “Synthesis and antimicrobial activity of some new benzimidazole derivatives” Molecules, 5 (2002), pp. 1429-1438]. The Sabaroud dexterous agar media was inoculated with 1 ml from tested spore suspension, then wells were cut from the plate using a sterile 10 mm cork-borer. […] All plates were incubated at 4° C. for 2 h to slow fungal growth. The plates were later incubated at 28° C. for a week [Mtolera and Semesi “Antimicrobial activity of extracts from six green algae from Tanzania.” Curr. Trends Mar. Bot. Res. East Afr. Reg. pp. 211-217 (1996)]. After incubation, the diameter of the growth inhibition zone was measured in mm [Attaie et al. Inhibition of growth of S. aureus during production of acidophilus yogurt J. Food Prot., 50 (1987), pp. 224-228], see Table 3.

[3] = Concentration 0.5 mg/mL, 28° C. for a week, 10 mm wells
[4] = Concentration 1.0 mg/mL, 28° C. for a week, 10 mm wells

SMILES | zone of inhibition at 1000 µg/mL (Microsporum gallinna [1]) | inhibition of Microsporum gallinna grown on the solid media (in words) (Microsporum gallinna [1]) | antimicrobial activity against M. gallinna, comparison among tested compounds (Microsporum gallinna [2]; 0.5 mg/ml concentration) | zone of inhibition at 500 µg/mL (Microsporum gallinna [2]) | antimicrobial activity against M. canis, comparison among tested compounds (Microsporum canis; 0.5 mg/ml concentration) | zone of inhibition at 500 µg/mL (Microsporum canis; [3]) | zone of inhibition at 1000 µg/mL (Microsporum canis; [4]) | inhibition of Microsporum canis grown on the solid media (in words) (Microsporum canis) | zone of inhibition at 500 µg/mL (Microsporum canis) | zone of inhibition at 1000 µg/mL (Microsporum canis) | Inhibition Zone Dimeter (mm) M. gallina (Microsporum gallinna [1]; [4]) | Inhibition Zone Dimeter (mm) M. gallina (Microsporum gallinna [2]; [3]) | Inhibition Zone Dimeter (mm) M. canis (Microsporum canis; [3]) | Inhibition Zone Dimeter (mm) M. canis (Microsporum canis; [4])
C=CC(C)(CCC(OO)C(=C)C)OC(C)=O (centres unmarked) [Hydroperoxide 5, 6-Hydroperoxy-3,7-dimethylocta-1,7-diene-3-yl acetate] | 85 mm | strongly inhibited | highest antimicrobial activity | 80.5 mm | highest antimicrobial activity | 81 mm | 85 mm | strongly inhibited |  |  |  |  |  | 
C=CC(C)(CCC=C(C)C)OC(C)=O (centres unmarked) [Linalyl acetate, 3,7-Dimethyl-1,6-octadien-3-yl acetate, reference compound] | 85 mm | strongly inhibited |  | 80 mm |  |  |  | strongly inhibited | 80 mm | 85 mm |  |  |  | 
C=CC(C)(CC=CC(C)(C)OO)OC(C)=O (centres unmarked) [Hydroperoxide 6, 7-Hydroperoxy-3,7-dimethylocta-1,5-diene-3-yl acetate] | 85 mm | strongly inhibited |  | 80 mm |  | 80 mm | 85 mm | strongly inhibited |  |  |  |  |  | 
CC(=O)OC(C)(CCC=C(C)C)C1CO1 (centres unmarked) [Epoxide 4, 1,2-Epoxy-3,7-dimethyl-6-octene-3-yl acetate] | 85 mm | strongly inhibited |  | 65 mm |  | 75 mm | 85 mm | strongly inhibited |  |  |  |  |  | 
C=CC(C)(CCC1OC1(C)C)OC(C)=O (centres unmarked) [Epoxide 3, 6,7-Epoxy-3,7-dimethyl-1-octene-3-yl-acetate] |  | strongly inhibited |  |  |  |  |  | strongly inhibited |  |  | 74.0 mm | 37.0 mm | 60.0 mm | 85.0 mm
